Biological target: T1, MAPK9 (JNK2) (Homo sapiens, UniProt P45984)
T1 construct: purchased Thermo Fisher Scientific (Life Technologies) SelectScreen
Test: SelectScreen Z'LYTE
Assay type: biochemical
Conditions: ATP 100 µM
Procedure, shortened: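 SelectScreen broad panel; activity (Z'LYTE, Adapta) plus binding formats. ATP: Km app for CSF1R Z'LYTE; 10 for CAMK1 Adapta. Readout = % per kinase.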

T1 sequence (P45984 whole entry): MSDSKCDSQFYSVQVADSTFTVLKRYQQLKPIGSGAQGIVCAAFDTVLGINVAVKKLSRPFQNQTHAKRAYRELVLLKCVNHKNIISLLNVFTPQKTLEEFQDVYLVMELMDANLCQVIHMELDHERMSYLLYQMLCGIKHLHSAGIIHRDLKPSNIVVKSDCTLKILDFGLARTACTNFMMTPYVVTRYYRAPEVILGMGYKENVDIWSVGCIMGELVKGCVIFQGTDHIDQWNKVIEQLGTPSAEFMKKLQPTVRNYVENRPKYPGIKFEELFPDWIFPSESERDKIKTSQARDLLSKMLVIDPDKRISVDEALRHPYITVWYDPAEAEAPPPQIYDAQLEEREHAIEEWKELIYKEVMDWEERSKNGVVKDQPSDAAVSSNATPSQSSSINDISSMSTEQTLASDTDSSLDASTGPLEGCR

CN(C(=O)CN1CCOCC1)c1ccc2sc3c(-c4cccc5c(=O)cc(N6CC7CCC(C6)O7)oc45)cccc3c2c1 [NU5455] showed an inhibition at 1 µM of 2.8%.

From article PMC6934184, “Selective DNA-PKcs inhibition extends the therapeutic index of localized radiotherapy and chemotherapy” (The Journal of Clinical Investigation, 2019)
